{
  "source": "patent US7514417B2",
  "about": "(CV Therapeutics, Inc., priority 2005, dated 2009)",
  "data": [
    {"biological_target": "T1, A1 adenosine receptor (Mesocricetus auratus, UniProt A0A1U8BVR4)", "T1 construct": "A1 adenosine receptor sites on the membranes of DDT cells; endogenous in cells; host or cells: DDT cells (DDT1, hamster vas deferens smooth muscle cell line), membrane preparation", "T1 sequence (A0A1U8BVR4 1-326)": "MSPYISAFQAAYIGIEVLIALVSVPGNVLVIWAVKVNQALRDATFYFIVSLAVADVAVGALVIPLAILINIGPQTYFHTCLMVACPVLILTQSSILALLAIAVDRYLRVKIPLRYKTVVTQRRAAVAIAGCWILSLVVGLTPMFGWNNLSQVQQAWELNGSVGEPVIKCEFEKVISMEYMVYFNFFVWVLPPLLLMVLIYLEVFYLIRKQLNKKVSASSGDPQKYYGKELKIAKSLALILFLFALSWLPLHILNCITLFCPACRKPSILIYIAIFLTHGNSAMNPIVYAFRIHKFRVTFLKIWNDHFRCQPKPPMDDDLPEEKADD", "test": "Competitive radioligand binding assay, A1 binding affinity, DDT1 cell membranes", "design": "species or system hamster", "settings": "membranes of DDT cells, tritiated radioligand (3H-CPA) 1.5 nM, 23° C. 90 minutes", "method": "DDT cells (hamster vas deferens smooth muscle cell line) were grown as monolayers in petri dishes using Dulbecco's Modified Eagle's Medium (DMEM) containing 2.5 μg mL^−1 amphotericin B, 100 U mL^−1 penicillin G, 0.1 mg mL^−1 streptomycin sulfate and 5% fetal bovine serum in a humidified atmosphere of 95% air and 5% CO2. Cells were subcultured twice weekly by dispersion in Hank's Balanced Salt Solution (HBSS) without the divalent cations and containing 1 mM EDTA. The cells were then seeded in growth medium at a density of 1.2×10^5 cells per plate and experiments were performed 4 days later at approximately one day preconfluence.\nAttached cells were washed twice with HBSS (2×10 mL), scraped free of the plate with the aid of a rubber policeman in 5 mL of 50 mM Tris-HCl buffer pH 7.4 at 4° C. and the suspension was homogenized for 10 s. The suspension was then centrifuged at 27,000×g for 10 min. The pellet was resuspended in homogenization buffer by vortexing and centrifuged again as described above. The final pellet was resuspended in 1 vol of 50 mM Tris-HCl buffer pH 7.4 containing 5 mM MgCl2 for A1 adenosine receptor assays. For the [^35S]GTPγS binding assay the final pellet was resuspended in 50 mM Tris-HCl pH 7.4 containing 5 mM MgCl2, 100 mM NaCl and 1 mM dithiothreitol. This membrane suspension was then placed in liquid nitrogen for 10 min and stored at −80° C. Aliquots of the membrane suspension were later thawed and used for assays. The protein content was determined with a Bradford™ Assay Kit using bovine serum albumin as standard.\nBriefly, 50-70 ug of membrane protein were incubated in a mixture containing 2U/ml adenosine deaminase and 10 μM GTP-γS in 50 mM Tris-HCl buffer, pH 7.4, with 1 mM EDTA in glass tubes. Stock solutions of the compounds of the invention were serially diluted (10^−10M to 10^−4M) in Tris buffer and added to the incubation mixture. […] After incubation at 23° C. 90 minutes, the reaction was stopped by filtration on a Brandel MR24 cell harvester and washing with ice-cold Tris-EDTA buffer (three times, approximate volume 10 ml/wash) over Whatman GF/B filters (presoaked for 1 h in 0.3% polyethylenimine to reduce non-specific binding). Filters were transferred to scintillation vials and 5 ml of Scintisafe (VWR, Brisbane, Calif.) was added. The amount of radioactivity retained on the filters was determined by liquid scintillation spectrometry.", "units": {"Ki": "nM"}, "values": [
      {"molecule": "CCNC(=O)[C@H]1O[C@@H](n2cnc3c(N[C@@H]4CCOC4)nc(-n4cc(-c5ccc6ccccc6n5)cn4)nc32)[C@H](O)[C@@H]1O", "Ki": 74},
      {"molecule": "Cc1cc(C)n(-c2nc(NC3CCCC3)c3ncn(C4O[C@H](CO)[C@@H](O)[C@H]4O)c3n2)n1", "note": "(some centres unmarked) [listing 1 of 2 here]", "Ki": 134},
      {"molecule": "CCNC(=O)[C@H]1O[C@@H](n2cnc3c(N[C@@H]4CCOC4)nc(-n4cc(-c5ccncc5)cn4)nc32)[C@H](O)[C@@H]1O", "Ki": 1060},
      {"molecule": "Cc1ccc(-c2cnn(-c3nc(N[C@@H]4CCOC4)c4ncn([C@@H]5O[C@H](C(=O)O)[C@@H](O)[C@H]5O)c4n3)c2)cc1", "Ki": 121},
      {"molecule": "Cc1cc(C)n(-c2nc(NC3CCCC3)c3ncn(C4O[C@H](CO)[C@@H](O)[C@H]4O)c3n2)n1", "note": "(some centres unmarked) [listing 2 of 2 here]", "Ki": 94},
      {"molecule": "CCOC(=O)c1cnn(-c2nc(NC3CCCC3)c3ncn([C@@H]4O[C@H](CO)[C@@H](O)[C@H]4O)c3n2)c1", "note": "(single isomer, unassigned) [XXV]", "Ki": 0.9},
      {"molecule": "O=C(NCc1cc(F)cc(C(F)(F)F)c1)c1cnn(-c2nc(N[C@@H]3CCOC3)c3ncn([C@@H]4O[C@H](CO)C(O)C4O)c3n2)c1", "note": "(stereo in doubt) [XXI, (1-{6-[((3R)oxolan-3-yl)amino]-9-[(3S,2R,4R,5R)-3,4-dihydroxy-5-(hydroxymethyl)oxolan-2-yl]purin-2-yl}pyrazol-4-yl)-N-{[5-fluoro-3-(trifluoromethyl)phenyl]methyl}carboxamide]", "Ki": 56},
      {"molecule": "CCOC(=O)c1cnn(-c2nc(NC3CCCC3)c3ncn([C@@H]4O[C@H](CO)[C@@H](O)[C@H]4O)c3n2)c1", "note": "[III, ethyl 1-{9-[(4S,3R,5R)-3,4-dihydroxy-5-(hydroxymethyl)oxolan-2-yl]-6-(cyclopentylamino)purin-2-yl}pyrazole-4-carboxylate]", "Ki": 36},
      {"molecule": "CCNC(=O)[C@H]1O[C@@H](n2cnc3c(NC4CCOC4)nc(-n4cc(-c5ccc(C)cc5)cn4)nc32)[C@H](O)[C@@H]1O", "note": "(some centres unmarked) [I]", "Ki": 2000},
      {"molecule": "CCNC(=O)c1cnn(-c2nc(N[C@@H]3CCOC3)c3ncn([C@@H]4O[C@H](CO)[C@@H](O)[C@H]4O)c3n2)c1", "note": "[XI, (1-{6-[((3R)oxolan-3-yl)amino]-9-[(4S,2R,3R,5R)-3,4-dihydroxy-5-(hydroxymethyl)oxolan-2-yl]purin-2-yl}pyrazol-4-yl)-N-ethylcarboxamide]", "Ki": 10},
      {"molecule": "CCOC(=O)c1cnn(-c2nc(NCc3ccccc3)c3ncn([C@@H]4O[C@H](CO)[C@@H](O)[C@H]4O)c3n2)c1", "note": "[XII, ethyl 1-{9-[(4S,2R,3R,5R)-3,4-dihydroxy-5-(hydroxymethyl)oxolan-2-yl]-6-[benzylamino]purin-2-yl}pyrazole-4-carboxylate]", "Ki": 1720},
      {"molecule": "CCCNC(=O)c1cnn(-c2nc(N[C@@H]3CCOC3)c3ncn([C@@H]4O[C@H](CO)[C@@H](O)[C@H]4O)c3n2)c1", "note": "[XIII, (1-{6-[((3R)oxolan-3-yl)amino]-9-[(4S,2R,3R,5R)-3,4-dihydroxy-5-(hydroxymethyl)oxolan-2-yl]purin-2-yl}pyrazol-4-yl)-N-propylcarboxamide]", "Ki": 10},
      {"molecule": "CCCNC(=O)c1cnn(-c2nc(NCc3ccccc3)c3ncn([C@@H]4O[C@H](CO)[C@@H](O)[C@H]4O)c3n2)c1", "note": "[XIV, (1-{9-[(4S,2R,3R,5R)-3,4-dihydroxy-5-(hydroxymethyl)oxolan-2-yl]-6-[benzylamino]purin-2-yl}pyrazol-4-yl)-N-propylcarboxamide]", "Ki": 1090},
      {"molecule": "O=C(NCc1ccc(F)cc1)c1cnn(-c2nc(N[C@@H]3CCOC3)c3ncn([C@@H]4O[C@H](CO)[C@@H](O)[C@H]4O)c3n2)c1", "note": "[XIX, (1-{6-[((3R)oxolan-3-yl)amino]-9-[(4S,2R,3R,5R)-3,4-dihydroxy-5-(hydroxymethyl)oxolan-2-yl]purin-2-yl}pyrazol-4-yl)-N-[(4-fluorophenyl)methyl] carboxamide]", "Ki": 43},
      {"molecule": "CCNC(=O)c1cnn(-c2nc(NCc3ccccc3)c3ncn([C@@H]4O[C@H](CO)[C@@H](O)[C@H]4O)c3n2)c1", "note": "[XV, (1-{9-[(4S,2R,3R,5R)-3,4-dihydroxy-5-(hydroxymethyl)oxolan-2-yl]-6-[benzylamino]purin-2-yl}pyrazol-4-yl)-N-ethylcarboxamide]", "Ki": 1530},
      {"molecule": "CNC(=O)c1cnn(-c2nc(NCc3ccccc3)c3ncn([C@@H]4O[C@H](CO)[C@@H](O)[C@H]4O)c3n2)c1", "note": "[XVI, (1-{9-[(4S,2R,3R,5R)-3,4-dihydroxy-5-(hydroxymethyl)oxolan-2-yl]-6-[benzylamino]purin-2-yl}pyrazol-4-yl)-N-methylcarboxamide]", "Ki": 1790},
      {"molecule": "O=C(O)c1ccc(-c2cnn(-c3nc(N[C@@H]4CCOC4)c4ncn(C5OC(CO)C(O)C5O)c4n3)c2)nc1", "note": "(stereo partly drawn) [XVII, 6-(1-{6-[((3R)oxolan-3-yl)amino]-9-[3,4-dihydroxy-5-(hydroxymethyl)oxolan-2-yl]purin-2-yl}pyrazol-4-yl)pyridine-3-carboxylic acid]", "Ki": 64},
      {"molecule": "O=C(NCc1ccc(Cl)cc1)c1cnn(-c2nc(N[C@@H]3CCOC3)c3ncn([C@@H]4O[C@H](CO)[C@@H](O)[C@H]4O)c3n2)c1", "note": "[XVIII, (1-{6-[((3R)oxolan-3-yl)amino]-9-[(4S,2R,3R,5R)-3,4-dihydroxy-5-(hydroxymethyl)oxolan-2-yl]purin-2-yl}pyrazol-4-yl)-N-[(4-chlorophenyl)methyl]carboxamide]", "Ki": 27},
      {"molecule": "O=C(NCc1ccccc1)c1cnn(-c2nc(N[C@@H]3CCOC3)c3ncn([C@@H]4O[C@H](CO)[C@@H](O)[C@H]4O)c3n2)c1", "note": "[XX, (1-{6-[((3R)oxolan-3-yl)amino]-9-[(4S,2R,3R,5R)-3,4-dihydroxy-5-(hydroxymethyl)oxolan-2-yl]purin-2-yl}pyrazol-4-yl)-N-benzylcarboxamide]", "Ki": 1},
      {"molecule": "COC(=O)c1ccc(CNC(=O)c2cnn(-c3nc(N[C@@H]4CCOC4)c4ncn([C@@H]5O[C@H](CO)[C@@H](O)[C@H]5O)c4n3)c2)cc1", "note": "[XXIX, methyl 4-{[(1-{6-[((3R)oxolan-3-yl)amino]-9-[(4S,2R,3R,5R)-3,4-dihydroxy-5-(hydroxymethyl)oxolan-2-yl]purin-2-yl}pyrazol-4-yl)carbonylamino]methyl}benzoate]", "Ki": 6},
      {"molecule": "O=C(O)c1ccc(CNC(=O)c2cnn(-c3nc(N[C@@H]4CCOC4)c4ncn([C@@H]5O[C@H](CO)[C@@H](O)[C@H]5O)c4n3)c2)cc1", "note": "[XXX, 4-{[(1-{6-[((3R)oxolan-3-yl)amino]-9-[(4S,2R,3R,5R)-3,4-dihydroxy-5-(hydroxymethyl)oxolan-2-yl]purin-2-yl}pyrazol-4-yl)carbonylamino]methyl}benzoic acid]", "Ki": 8},
      {"molecule": "O=C(O)c1cnn(-c2nc(NC3CCCC3)c3ncn([C@@H]4O[C@H](CO)[C@@H](O)[C@H]4O)c3n2)c1", "note": "[XXXI, 1-{9-[(4S,3R,5R)-3,4-dihydroxy-5-(hydroxymethyl)oxolan-2-yl]-6-(cyclopentylamino)purin-2-yl}pyrazole-4-carboxylic acid]", "Ki": 8},
      {"molecule": "NC(=O)c1cnn(-c2nc(NC3CCCC3)c3ncn([C@@H]4O[C@H](CO)[C@@H](O)[C@H]4O)c3n2)c1", "note": "[XXXII, 1-(9-[(4S,3R,5R)-3,4-dihydroxy-5-(hydroxymethyl)oxolan-2-yl]-6-(cyclopentylamino)purin-2-yl}pyrazole-4-carboxamide]", "Ki": 0.59},
      {"molecule": "CCOC(=O)c1cnn(-c2nc(NC3CC4CCC3C4)c3ncn(C4O[C@H](CO)[C@@H](O)[C@H]4O)c3n2)c1", "note": "(stereo partly drawn) [XXXIII, ethyl 1-{9-[(4S,3R,5R)-3,4-dihydroxy-5-(hydroxymethyl)oxolan-2-yl]-6-(bicyclo[2.2.1]hept-2-ylamino)purin-2-yl}pyrazole-4-carboxylate]", "Ki": 2},
      {"molecule": "O=C(O)c1cnn(-c2nc(NC3CC4CCC3C4)c3ncn(C4O[C@H](CO)[C@@H](O)[C@H]4O)c3n2)c1", "note": "(stereo partly drawn) [XXXIV, 1-{9-[(4S,3R,5R)-3,4-dihydroxy-5-(hydroxymethyl)oxolan-2-yl]-6-(bicyclo[2.2.1]hept-2-ylamino)purin-2-yl}pyrazole-4-carboxylic acid]", "Ki": 1},
      {"molecule": "CNC(=O)c1cnn(-c2nc(NC3CCCC3)c3ncn([C@@H]4O[C@H](CO)[C@@H](O)[C@H]4O)c3n2)c1", "note": "[XXXV, (1-{9-[(4S,3R,5R)-3,4-dihydroxy-5-(hydroxymethyl)oxolan-2-yl]-6-(cyclopentylamino)purin-2-yl}pyrazol-4-yl)-N-methylcarboxamide]", "Ki": 1}
    ]}
  ]
}
